ChEMBL document CHEMBL1132735, “Synthesis and biological evaluation of L- and D-configuration 1,3-dioxolane 5-azacytosine and 6-azathymine nucleosides” (Bioorg Med Chem Lett, 2000)

Experiments:
Human alphaherpesvirus 2 = test: Concentration required to inhibit 50% of HSV-2 replication; assay type: functional, organism-based
Human alphaherpesvirus 1 = test: Concentration required to inhibit 50% of HSV-1 replication; assay type: functional, organism-based
Vero = test: Concentration required to inhibit 50% of host cell replication in Vero cell used against HSV-1 and HSV-2 studies; assay type: functional, cell-based; details: Chlorocebus sabaeus
B16-F10 = test: Concentration required to inhibit 50% of B16F10 cell replication, tested up to a concentration of 100 uM; assay type: functional, cell-based; details: Mus musculus
CCRF-CEM = test: Concentration required to inhibit 50% of CCRF-CEM cell replication, tested up to a concentration of 100 uM; assay type: functional, cell-based; details: Homo sapiens
Hepatitis B virus = test: Concentration required to inhibit 50% of Hepatitis B virus replication; assay type: functional, organism-based
[1] = test system: Human immunodeficiency virus 1; test: Concentration required to inhibit 50% of HIV-IIIB virus replication; assay type: functional, organism-based
HepG2 = test: Concentration required to inhibit 50% of host cell replication in human hepatoma (2.2.15) cells used against HBV studies; assay type: functional, cell-based
L1210 = test: Concentration required to inhibit 50% of leukemia L1210 cell replication, tested up to a concentration of 100 uM; assay type: functional, cell-based; details: Mus musculus
MT2 = test: Concentration required to inhibit 50% of host cell replication in MT-2 cells used against HIV studies; assay type: functional, cell-based; details: Homo sapiens
P388 = test: Concentration required to inhibit 50% of P388 cell replication, tested up to a concentration of 100 uM; assay type: functional, cell-based; details: Mus musculus

SMILES | EC50 (Human alphaherpesvirus 2) | EC50 (Human alphaherpesvirus 1) | EC50 (B16-F10) | EC50 (CCRF-CEM) | EC50 (Hepatitis B virus) | EC50 [1] | EC50 (L1210) | EC50 (P388) | IC50 (Vero) | IC50 (HepG2) | IC50 (MT2)
Nc1nc2c(ncn2COCCO)c(=O)[nH]1 [ACYCLOVIR] | 35 µM | 23 µM |  |  |  |  |  |  | > 50 µM |  | 
Nc1ncn(C[C@H]2CO[C@@H](CO)O2)c(=O)n1 | > 50 µM | > 50 µM | 60 µM | 80 µM | 6.3 µM | 1 µM | 90 µM | 70 µM | 30 µM | 27 µM | 32 µM
Cc1nn(C[C@H]2CO[C@H](CO)O2)c(=O)[nH]c1=O | > 50 µM | > 50 µM | > 100 µM | > 100 µM | > 20 µM | > 100 µM | > 100 µM | > 100 µM | > 50 µM | > 50 µM | > 100 µM
Cc1nn(C[C@@H]2CO[C@H](CO)O2)c(=O)[nH]c1=O | > 50 µM | > 50 µM | > 100 µM | > 100 µM | > 20 µM | > 100 µM | > 100 µM | > 100 µM | > 50 µM | > 50 µM | > 100 µM
Nc1ncn(C[C@@H]2CO[C@H](CO)O2)c(=O)n1 | > 50 µM | 32 µM | 70 µM | 20 µM | 0.6 µM | 5 µM | 70 µM | 90 µM | 12 µM | 17 µM | 17 µM

Second part, led by results:

EC50 (Human alphaherpesvirus 2) | EC50 (Human alphaherpesvirus 1) | EC50 (B16-F10) | EC50 (CCRF-CEM) | EC50 (Hepatitis B virus) | EC50 [1] | EC50 (L1210) | EC50 (P388) | SMILES | IC50 (Vero) | IC50 (HepG2) | IC50 (MT2)
> 50 µM | > 50 µM | > 100 µM | > 100 µM | > 20 µM | > 100 µM | > 100 µM | > 100 µM | Cc1nn(C[C@@H]2CO[C@@H](CO)O2)c(=O)[nH]c1=O | > 50 µM | > 50 µM | > 100 µM
 |  |  |  | 2.3 µM |  |  |  | Nc1ccn([C@H]2CC[C@@H](CO)O2)c(=O)n1 [ZALCITABINE] |  | > 37 µM | 
> 50 µM | > 50 µM | > 100 µM | > 100 µM | > 20 µM | > 100 µM | > 100 µM | > 100 µM | Cc1nn(C[C@H]2CO[C@@H](CO)O2)c(=O)[nH]c1=O | > 50 µM | > 50 µM | > 100 µM
 |  |  |  | > 20 µM | 0.6 µM |  |  | Cc1cn([C@H]2C=C[C@@H](CO)O2)c(=O)[nH]c1=O [STAVUDINE] |  |  | > 100 µM
> 50 µM | > 50 µM | 70 µM | 30 µM | 6.5 µM | > 100 µM | 70 µM | 65 µM | Nc1ncn(C[C@H]2CO[C@H](CO)O2)c(=O)n1 | 31 µM | 17 µM | 18 µM
> 50 µM | > 50 µM | 80 µM | 70 µM | > 20 µM | > 100 µM | 80 µM | 70 µM | Nc1ncn(C[C@@H]2CO[C@@H](CO)O2)c(=O)n1 | 28 µM | 25 µM | 27 µM
